Laboratory results published in publication PMC6934184, “Selective DNA-PKcs inhibition extends the therapeutic index of localized radiotherapy and chemotherapy” (The Journal of Clinical Investigation, 2019).

Biological target: T1, ALK R1275Q (Homo sapiens, UniProt Q9UM73, R1275Q)
T1 construct: purchased Thermo Fisher Scientific (Life Technologies) SelectScreen
Test: SelectScreen LanthaScreen
Format: binding
Details: read-out: % displacement
How it was run: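 NU5455 was profiled across the SelectScreen Broad panel of kinase activity and binding assays. Z'LYTE reactions such as CSF1R ran at apparent Km ATP, while the Adapta CAMK1 assay used ATP listed as 10. Values are given as percent.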

T1 sequence (Q9UM73 19-1620 R1275Q): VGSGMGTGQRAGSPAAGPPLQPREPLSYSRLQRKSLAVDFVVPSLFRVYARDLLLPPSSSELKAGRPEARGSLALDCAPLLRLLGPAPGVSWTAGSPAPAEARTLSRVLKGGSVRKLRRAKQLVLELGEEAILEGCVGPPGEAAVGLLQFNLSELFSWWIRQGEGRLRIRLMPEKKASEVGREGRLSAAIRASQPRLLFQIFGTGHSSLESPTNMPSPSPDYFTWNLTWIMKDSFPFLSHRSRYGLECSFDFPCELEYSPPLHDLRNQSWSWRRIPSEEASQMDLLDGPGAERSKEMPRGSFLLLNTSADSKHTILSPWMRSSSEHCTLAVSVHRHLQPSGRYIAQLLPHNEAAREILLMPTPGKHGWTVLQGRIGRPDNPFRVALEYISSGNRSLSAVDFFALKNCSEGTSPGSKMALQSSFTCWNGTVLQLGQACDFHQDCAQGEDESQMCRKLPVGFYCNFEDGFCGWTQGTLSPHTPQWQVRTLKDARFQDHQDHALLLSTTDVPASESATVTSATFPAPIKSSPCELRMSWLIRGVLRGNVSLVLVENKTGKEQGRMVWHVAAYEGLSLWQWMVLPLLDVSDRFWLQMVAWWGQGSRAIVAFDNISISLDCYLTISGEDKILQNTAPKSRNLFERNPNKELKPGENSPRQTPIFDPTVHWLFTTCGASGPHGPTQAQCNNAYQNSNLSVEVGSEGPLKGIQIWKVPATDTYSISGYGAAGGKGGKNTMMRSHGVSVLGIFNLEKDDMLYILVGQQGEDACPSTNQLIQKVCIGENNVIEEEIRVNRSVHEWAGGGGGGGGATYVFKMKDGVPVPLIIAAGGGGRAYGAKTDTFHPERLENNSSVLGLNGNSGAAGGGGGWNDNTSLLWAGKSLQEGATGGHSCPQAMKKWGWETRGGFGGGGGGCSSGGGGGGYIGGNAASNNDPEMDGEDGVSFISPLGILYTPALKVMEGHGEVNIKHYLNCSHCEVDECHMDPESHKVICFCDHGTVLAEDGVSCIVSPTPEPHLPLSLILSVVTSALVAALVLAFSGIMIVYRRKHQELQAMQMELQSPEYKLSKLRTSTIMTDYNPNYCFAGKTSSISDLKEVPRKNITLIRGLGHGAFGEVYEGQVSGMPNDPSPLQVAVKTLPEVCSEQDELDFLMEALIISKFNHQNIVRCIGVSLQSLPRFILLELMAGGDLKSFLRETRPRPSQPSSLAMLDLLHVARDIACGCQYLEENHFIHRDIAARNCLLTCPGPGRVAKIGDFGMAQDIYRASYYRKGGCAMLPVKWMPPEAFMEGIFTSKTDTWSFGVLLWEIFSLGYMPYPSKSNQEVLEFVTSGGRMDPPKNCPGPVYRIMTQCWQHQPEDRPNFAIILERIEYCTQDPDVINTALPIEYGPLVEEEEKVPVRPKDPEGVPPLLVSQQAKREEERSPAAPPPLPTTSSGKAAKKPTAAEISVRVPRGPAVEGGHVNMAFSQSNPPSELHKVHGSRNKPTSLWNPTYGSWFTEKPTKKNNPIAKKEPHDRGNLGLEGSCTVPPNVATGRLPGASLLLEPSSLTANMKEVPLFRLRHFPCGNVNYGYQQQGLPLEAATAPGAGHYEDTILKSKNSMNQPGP

## CN(C(=O)CN1CCOCC1)c1ccc2sc3c(-c4cccc5c(=O)cc(N6CC7CCC(C6)O7)oc45)cccc3c2c1 [NU5455]
  inhibition at 1 µM: 2%
